# Experimental data taken from patent US11091476B2, “Protein kinase inhibitors, preparation method and medical use thereof” (Gan & Lee Pharmaceuticals, priority 2015, dated 2021).
# System: U87-luc orthotopic brain xenograft
# Test: Pharmacodynamic study in U87-luc orthotopic brain xenograft model, median survival
# Assay type: in vivo, BALB/c nude mice
# Conditions: for Medium survival: survival time range in brackets
# Description: Pharmacodynamic study of the compound 17 of this disclosure and the combination of compound 17 of the disclosure and temozolomide in a U87-luc orthotopic brain xenograft model
# Adult female BALB/c nude mice were used as test animals. A U87-luc orthotopic brain xenograft model was used to study the effect of representative compound 17 of this disclosure on the median survival of female BALB/c nude mice after intragastric administration.
# Healthy adult female BALB/c nude mice, 8 mice/group, 6-8 weeks old, weighing 18-22 g, purchased from Shanghai SIPPR-BK Laboratory Animal Co., Ltd., Animal Production License No: 2008001658261; 2008001658263. • 7.2.3 Preparation of the test compounds
# An appropriate amount of compound 17 was weighed, and added with 0.1% hydroxyethyl cellulose/0.5% TWEEN®80 as vehicle to 0.3125 mg/ml;
# An appropriate amount of Temozolomide sample was weighed, and added with 0.1% CMC-Na+0.25% TWEEN®80 as vehicle to 0.3 mg/ml.
# Adult female BALB/c nude mice were anesthetized by intraperitoneal injection of sodium pentobarbital at a dose of 80 mg/kg. To relieve pain, animals were injected subcutaneously with buprenorphine at the time points 30 minutes before operation and 6 hours after operation at a dose of 0.1 mg/kg. Animals were observed after anesthesia until all animals had awakened.
# The anesthetized animals were properly fixed, the animals' head skin was sterilized with 70% ethanol, and an approximately 10 mm long incision was made on the right side of the midline from the forehead to the ear line. 3×10^5 U87-luc cells (3 μl, mixture of PBS and Matrigel at a ratio of 4:1) were inoculated at the right frontal lobe that is 2 mm away from the right side of the bregma and is 1 mm away from the front side of the coronal suture in each animal. The incision was sutured with a No. 6 suture, and sterilized with polyvinylpyrrolidone. Animals are kept warm until anabiosis. Six days after tumor cell transplantation, tumor animals were grouped by stratified randomization based on […] signal intensity values, and the average bioluminescence reached 2.812E+07 photons/sec when the groups were administered in groups. Different animal groups were administered at different doses for a total of 35 days.
structure (smiles),measurement,setting,value
"CC1=Nc2c(F)cc(-c3nc(Nc4ccc(C5CCN(C)CC5)cn4)ncc3F)cc2C12CCCC2 [Example 17, 5-Fluoro-4-(7′-fluoro-2′-methylspiro[cyclopentane-1,3′-indol]-5′-yl)-N-(5-(1-methylpiperidin-4-yl)pyridin-2-yl)pyrimidine-2-amino]",Medium survival,3.125 mg/kg QD intragastric,38.5(26-59) days
same,Medium survival,6.25 mg/kg QD intragastric,43.5(31-48) days
same,Medium survival,12.5 mg/kg QD intragastric,44.5(31-114) days
same,Medium survival,25 mg/kg QD intragastric,61(41-76) days
same,Medium survival,50 mg/kg QD intragastric,78.5(63->114) days
same,"Effect on median survival, in words",dose-dependent,significantly prolong the median survival
